Experimental data reported in patent publication US6967192B2, “Seventeen amino acid peptide (Peptide P) for treating ischemia and reperfusion injury” (University of Kentucky Research Foundation, priority 2001, dated 2005).
“And” between values parts separate entries of the source, which are not always exact repeats. Identical values can stand only once.

Test system: murine model of ischemia/reperfusion injury (cerebral ischemia)
Test: Murine ischemia/reperfusion model: brain infarct size/volume by TTC staining
Type: in vivo, mouse
Design: Damaged Cross Section Area (sum of sections), individual mice: unit: mm^2
Settings: for infarct size (Damaged %), Average: 4 mg/Kg I.V. 1 hr after occlusion, 1 hr ischemia; for infarct size (Damaged %), Average / infarct volume (Corrected Volume), Average: mean ± SEM
[1] = 4 mg/Kg after 1 hr ischemia, 24 hr reperfusion, n=6
[2] = 4 mg/Kg after 1 hr ischemia, 24 hr reperfusion, mice No. 1-6, listed as Pep-P

Tyr-D-Ala-Phe-Ala-Asp-Val-Ala-Ser-Thr-Ile-Gly-Asp-Phe-Phe-His-Ser-Ile-NH2 (AFADVASTIGDFFHSI; D-Ala, C-terminal amide; printed: Ala-Phe-Ala-Asp-Val-Ala-Ser-Thr-Ile-Gly-Asp-Phe-Phe-His-Ser-Ile-) [Peptide P, linear 17 amino acid peptide with alanine as D-isomer]
infarct size (Damaged %), Average (24 hr reperfusion, n=6): 16.87+/−3.3% | infarct size (Damaged %), Average (24 hr reperfusion, n=6, listed as Pep-P): 16.87 ± 3.3% | infarct volume (Corrected Volume), Average [1]: 24±4.8 mm^3 | infarct volume (Corrected Volume), Average (4 mg/Kg after 1 hr ischemia, 24 hr reperfusion, n=6, listed as Pep-P): 23.74 ± 4.8% mm^3 | Corrected Volume, individual mice (4 mg/Kg after 1 hr ischemia, 24 hr reperfusion, mice No. 1-6, Damaged Cross Section Area × 2 mm section, listed as Pep-P): 35.32 mm^3 and 5.10 mm^3 and 16.98 mm^3 and 35.86 mm^3 and 25.84 mm^3 and 23.36 mm^3 | Damaged %, individual mice [2]: 25.77% and 3.94% and 12.69% and 24.58% and 18.16% and 16.10% | Damaged Cross Section Area (sum of sections), individual mice [2]: 17.66 and 2.55 and 8.49 and 17.93 and 12.92 and 11.68 | Damaged Cross Section Area (sum of sections), Average [1]: 11.87 ± 2.4% | reduction of infarct volume compared to control animals (4 mg/kg, after 24 h of reperfusion): 59% | Damaged Cross Section Area 1, individual mice (brain section 1, 4 mg/Kg after 1 hr ischemia, 24 hr reperfusion, listed as Pep-P, 4 mg/kg): 3.69 and 0 (2×) and 1.42 and 1.89 and 0.27 | Damaged Cross Section Area 2, individual mice (brain section 2, 4 mg/Kg after 1 hr ischemia, 24 hr reperfusion, listed as Pep-P, 4 mg/kg): 5.66 and 0.32 and 1.38 and 3.27 and 4.59 and 1.8 | Damaged Cross Section Area 3, individual mice (brain section 3, 4 mg/Kg after 1 hr ischemia, 24 hr reperfusion, listed as Pep-P, 4 mg/kg): 6.47 and 1.12 and 2.63 and 7.23 and 2.22 and 5.15 | Damaged Cross Section Area 4, individual mice (brain section 4, 4 mg/Kg after 1 hr ischemia, 24 hr reperfusion, listed as Pep-P, 4 mg/kg): 1.84 and 1.11 and 3.06 and 5.54 and 6.11 and 4.46
